In US20240100473A1, “CARBON DIOXIDE ABSORBER” (MITSUBISHI GAS CHEMICAL COMPANY, INC., priority 2021, published 2024):

Legend:
[1] = Maximum carbon dioxide release temperature of amine compound (DSC); assay type: physicochemical; settings: amine compound with CO2 absorbed from air for 24 h; DSC 23 to 250° C., 10° C./min, nitrogen atmosphere
Method: The amine compound (A) is heated with carbon dioxide absorbed from 23° C. to 250° C. at 10° C./minute of a heating rate, and a temperature at which an endothermic amount associated with desorption of carbon dioxide reaches a maximum is measured, and this temperature is taken as the maximum carbon dioxide release temperature. Here, the amine compound (A) with carbon dioxide absorbed can be prepared, for example, by allowing 5 mmol of the amine compound (A) to stand in the air at 23° C. and 50% RH for 24 hours.
(Maximum Carbon Dioxide (CO2) Release Temperature of Amine Compound)
After the above evaluation of the absorbed amount of carbon dioxide from the air was completed, the amine compound was removed from the desiccator as the amine compound having carbon dioxide absorbed. The DSC measurement was performed on the amine compound with carbon dioxide absorbed as follows, to measure the maximum carbon dioxide release temperature of the amine compound. First, the differential scanning calorimetry was performed on the amine compound using the differential thermogravimetric analyzer (Product Name: DTG-60 produced by Shimadzu Corporation) under the conditions of 23 to 250° C. of a measurement temperature range, 10° C./min of the heating rate, and the nitrogen atmosphere. From the DSC curve obtained thereby, the temperature at which the endothermic amount associated with the desorption of carbon dioxide reached the maximum was calculated, and the temperature thereof was used as the maximum carbon dioxide release temperature of the amine compound.

[2] = Evaluation of absorbed amount of carbon dioxide from air (desiccator); settings: 5 mmol amine compound in desiccator, air 23° C. and 50% RH, initial CO2 about 400 ppm, after 24 hours
Method: (Evaluation of Absorbed Amount of Carbon Dioxide from Air)
A carbon dioxide concentration meter and a petri dish were placed inside an openable desiccator (Internal Dimension: 370 mm×260 mm×272 mm). The amine compound (5 mmol) was then added to the petri dish in the desiccator, a door was immediately closed, and the carbon dioxide concentration in the desiccator was measured over time for 24 hours under an air environment of 23° C. and 50% RH. The initial concentration of carbon dioxide was adjusted to about 400 ppm. Changes of the carbon dioxide concentration in the desiccator 24 hours after the amine compound was placed in the desiccator are shown in Table 1. Here, it is meant that the greater the change of the carbon dioxide concentration in the desiccator is, the greater the amount of the carbon dioxide absorbed by the carbon dioxide absorbent is.

[3] = Acid dissociation constant (pKa) by acid-base titration; assay type: physicochemical; settings: 0.2 g in 30 mL purified water, 25±2° C.
Method: In the present embodiments, the acid dissociation constant of the amine compound (A) is a value obtained by the following measurement method based on an acid-base titration method. • (1) Dissolving 0.2 g of the amine compound (A) in 30 mL of purified water. • (2) Calculating the acid dissociation constant (pKa) by titrating the solution obtained in the above (1) with 0.1 N perchloric acid-acetic acid solution using an automatic potentiometric titrator (for example, AT-610 produced by Kyoto Electronics Manufacturing Co., Ltd.).
(Acid Dissociation Constant (pKa) of Amine Compound)
The acid dissociation constant of the amine compound was determined by the following method. • (1) Dissolving 0.2 g of the amine compound in 30 mL of the purified water. • (2) Calculating the acid dissociation constant (pKa) by titrating the solution obtained in the above (1) with the 0.1 N perchloric acid-acetic acid solution using the automatic potentiometric titrator (AT-610 produced by Kyoto Electronics Manufacturing Co., Ltd.).
Still, let the temperature at the time of measurement be 25±2° C.

[4] = Amine value of amine compound (JIS K7237-1995 titration); assay type: physicochemical; settings: 0.1 g in 20 mL acetic acid, titrated with 0.1 N perchloric acid-acetic acid
Method: The amine value can be measured by the following method in accordance with JIS K7237-1995. • (1) Dissolving 0.1 g of the amine compound (A) in 20 mL of acetic acid. • (2) Calculating the amine value by titrating the solution obtained in the above (1) with the 0.1 N perchloric acid-acetic acid solution using the automatic potentiometric titrator (for example, AT-610 produced by Kyoto Electronics Manufacturing Co., Ltd.).
(Amine Value of Amine Compound)
The amine value was measured by the following measurement method in accordance with JIS K7237-1995. • (1) Dissolving 0.1 g of the amine compound in 20 mL of the acetic acid. • (2) Calculating the amine value by titrating the solution obtained in the above (1) with the 0.1 N perchloric acid-acetic acid solution using the automatic potentiometric titrator (AT-610 produced by Kyoto Electronics Manufacturing Co., Ltd.).

[5] = Maximum endothermic temperature of amine compound (DSC); assay type: physicochemical; settings: DSC 23 to 350° C., 10° C./min, nitrogen atmosphere; volatilization of amine compound
Method: Heating the amine compound (A) from 23° C. to 350° C. at 10° C./minute of the heating rate, measuring a temperature at which an endothermic amount associated with the volatilization of the amine compound (A) reaches a maximum, and letting this temperature be the maximum endothermic temperature of the amine compound (A).
(Maximum Endothermic Temperature of Amine Compound)
DSC measurements were performed on the amine compounds used in Examples and Comparative Examples to measure the maximum endothermic temperature of the amine compounds as follows. First, a differential scanning calorimetry was performed on the amine compounds using a differential thermogravimetric analyzer (Product Name: DTG-60 produced by Shimadzu Corporation) under conditions of 23 to 350° C. of a measurement temperature range, 10° C./min of a heating rate, and a nitrogen atmosphere. From the DSC curve obtained thereby, the temperature at which the endothermic amount associated with the volatilization of the amine compound reached the maximum was calculated, and the temperature thereof was used as the maximum endothermic temperature of the amine compound.

| SMILES | Maximum CO2 Release Temperature [1] [°C] | Evaluation of CO2 Absorbed Amount: Changes of CO2 Concentration, 24h [2] [ppm] | pKa [3] | Amine Value [4] [mgKOH/g] | Maximum Endothermic Temperature [5] [°C] |
| --- | --- | --- | --- | --- | --- |
| NCc1cccs1 [Example 5, 2-thiophenemethylamine] | 83.6 | 249 | 9.5 | 496 | 140.1 |
| NCCN1CCOCC1 [Example 4, 4-(2-aminoethyl)morpholine] | 81.5 | 400 | 10.1 | 862 | 145.0 |
| NCCNCCN [Comparative Example 2, Diethylenetriamine, reference compound] | 127.8 | 300 | 9.7 | 1632 | 127.8 |
| NCC1CCC(CN)O1 (stereo not drawn) [Example 1, 2,5-bis(aminomethyl)tetrahydrofuran] | 80.3 | 300 | 9.4 | 862 | 155.9 |
| NCc1ccc(CN)o1 [Example 2, 2,5-bisaminomethylfuran] | 85.0 | 306 | 9 | 890 | 154.2 |
| Cc1ccc(CN)o1 [Example 7, 5-methylfurfurylamine] | 80.7 | 226 | 9.2 | 505 | 115.3 |
| NCc1cccc(CN)c1 [Comparative Example 1, Meta-xylylenediamine, reference compound] | 135.5 | 329 | 9.5 | 824 | 183.5 |
| NCC1CCOCC1 [Example 3, 4-aminomethyltetrahydropyran] | 111.0 | 389 | 10 | 487 | 127.4 |
| NCc1ccco1 [Example 6, Furfurylamine] | 66.7 | 188 | 9.2 | 578 | 92.4 |
